What follows are compounds tested against human orexin-2 receptor (Homo sapiens (Human), UniProt O43614) (assay: FLIPR Ca2+ Flux Assay, orexin-2 receptor). Details: CHO cells expressing the human orexin-2 receptor; agonist 70 pM Ala-6,12 human orexin-A; read-out: hOX2 FLIPR IC50.
Format: cell-based
Procedure: In a typical experiment the OX1 and OX2 receptor antagonistic activity of the compounds of the present invention was determined in accordance with the following experimental method. For intracellular calcium measurements, Chinese hamster ovary (CHO) cells expressing the rat orexin-1 receptor or the human orexin-2 receptor, are grown in Iscove's modified DMEM containing 2 mM L-glutamine, […], 1% hypoxanthine-thymidine supplement, 100 U/ml penicillin, 100 μg/ml streptomycin and 10% heat-inactivated fetal calf serum (FCS). The cells are seeded at 20,000 cells/well into Becton-Dickinson black 384-well clear bottom sterile plates coated with poly-D-lysine. All reagents are from GIBCO-Invitrogen Corp. The seeded plates are incubated overnight at 37° C. and 5% CO2. Ala-6,12 human orexin-A as the agonist is prepared as a 1 mM stock solution in 1% bovine serum albumin (BSA) and diluted in assay buffer (HBSS containing 20 mM HEPES, 0.1% BSA and 2.5 mM probenecid, pH7.4) for use in the assay at a final concentration of 70 pM. Test compounds are prepared as 10 mM stock solution in DMSO, then diluted in 384-well plates, first in DMSO, then assay buffer. On the day of the assay, cells are washed 3 times with 100 μl assay buffer and then incubated for 60 min (37° C., 5% CO2) in 60 μl assay buffer containing 1 μM Fluo-4AM ester, 0.02% pluronic acid, and 1% BSA. The dye loading solution is then aspirated and cells are washed 3 times with 100 μl assay buffer. 30 μl of that same buffer is left in each well. Within the Fluorescent Imaging Plate Reader (FLIPR, Molecular Devices), test compounds are added to the plate in a volume of 25 μl, incubated for 5 min and finally 25 μl of agonist is added. Fluorescence is measured for each well at 1 second intervals for 5 minutes and the height of each fluorescence peak is compared to the height of the fluorescence peak induced by 70 pM Ala-6,12 orexin-A with buffer in place of antagonist. […] The intrinsic orexin receptor antagonist activity of a compound which may be used in the present invention may be determined by these assays.

Sequence of human orexin-2 receptor (O43614 whole entry): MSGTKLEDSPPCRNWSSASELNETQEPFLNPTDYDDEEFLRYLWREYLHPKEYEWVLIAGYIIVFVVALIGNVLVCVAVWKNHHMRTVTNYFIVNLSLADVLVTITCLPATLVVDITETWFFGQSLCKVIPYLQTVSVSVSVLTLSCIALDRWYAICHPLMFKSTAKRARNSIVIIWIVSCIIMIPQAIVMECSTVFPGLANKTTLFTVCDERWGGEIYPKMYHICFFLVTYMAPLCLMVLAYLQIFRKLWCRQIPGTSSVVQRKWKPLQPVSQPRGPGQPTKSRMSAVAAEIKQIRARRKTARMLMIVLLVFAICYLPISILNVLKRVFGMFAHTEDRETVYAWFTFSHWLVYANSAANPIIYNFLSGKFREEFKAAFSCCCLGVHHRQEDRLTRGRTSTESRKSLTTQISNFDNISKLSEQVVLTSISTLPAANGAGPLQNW

Q: `CC(C)C(C)(O)c1cc([C@@H]2CC[C@@H](C)N(C(=O)c3ccccc3-n3nccn3)C2)no1` (single isomer, unassigned) [Example 16] was tested. Which IC50 did it give?
A: 24.3 nM

Q: Which IC50 does the source give for `CCC(O)(CC)c1cc([C@@H]2CC[C@@H](C)N(C(=O)c3ccccc3-n3nccn3)C2)no1` [Example 8, (2-(2H-1,2,3-triazol-2-yl)phenyl)((2R,5R)-5-(5-(3-hydroxypentan-3-yl)isoxazol-3-yl)-2-methylpiperidin-1-yl)methanone] here?
A: 552 nM

Q: Which IC50 does the source give for `C[C@@H]1CC[C@@H](c2cc(C(C)(C)O)on2)CN1C(=O)c1cc(F)ccc1-n1nccn1` [Example 4, (5-Fluoro-2-(2H-1,2,3-triazol-2-yl)phenyl)((2R,5R)-5-(5-(2-hydroxypropan-2-yl)isoxazol-3-yl)-2-methylpiperidin-1-yl)methanone] here?
A: 278 nM

Q: How did the IC50 turn out when `C[C@@H]1CC[C@@H](c2cc([C@](C)(O)C(F)F)on2)CN1C(=O)c1ccccc1-n1nccn1` [Example 18, (2S)-1,1-Difluoro-2-{3-[(3R,6R)-6-methyl-1-{[2-(2H-1,2,3-triazol-2-yl)phenyl]carbonyl}piperidin-3-yl]isoxazol-5-yl}propan-2-ol] was run?
A: 92 nM

Q: How did the IC50 turn out when `C[C@@H]1CC[C@@H](c2cc([C@@H](O)C(F)(F)F)no2)CN1C(=O)c1ccccc1-c1ncccn1` [Example 50, (1R)-2,2,2-Trifluoro-1-(5-{(3R,6R)-6-methyl-1-[(2-pyrimidin-2-ylphenyl)carbonyl]piperidin-3-yl}isoxazol-3-yl)ethanol] was run?
A: 110 nM

Q: Which IC50 does the source give for `C[C@@H]1CC[C@@H](c2cc(C(C)(C)O)sn2)CN1C(=O)c1ccccc1C1(C#N)CC1` [Example 62, 1-[2-({(2R,5R)-5-[5-(1-Hydroxy-1-methylethyl)isothiazol-3-yl]-2-methylpiperidin-1-yl}carbonyl)phenyl]cyclopropanecarbonitrile] here?
A: 19.1 nM

Q: For `C[C@@H]1CC[C@@H](c2cc([C@@H](O)C(F)(F)F)no2)CN1C(=O)c1ccccc1-n1nccn1` [Example 40, (1R)-2,2,2-Trifluoro-1-{5-[(3R,6R)-6-methyl-1-{[2-(2H-1,2,3-triazol-2-yl)phenyl]carbonyl}piperidin-3-yl]isoxazol-3-yl}ethanol], which IC50 is on record?
A: 11 nM

Q: For `C[C@@H]1CC[C@@H](c2cc([C@H](O)C(F)(F)F)no2)CN1C(=O)c1ccccc1-n1nccn1` [Example 41, (1S)-2,2,2-trifluoro-1-{5-[(3R,6R)-6-methyl-1-{[2-(2H-1,2,3-triazol-2-yl)phenyl]carbonyl}piperidin-3-yl]isoxazol-3-yl}ethanol], which IC50 is on record?
A: 17.5 nM

Q: How did the IC50 turn out when `C[C@@H]1CC[C@@H](c2cc([C@H](O)C(F)(F)F)no2)CN1C(=O)c1ccccc1-n1ncnn1` [Example 47, (1S)-2,2,2-Trifluoro-1-{5-[(3R,6R)-6-methyl-1-{[2-(2H-tetrazol-2-yl)phenyl]carbonyl}piperidin-3-yl]isoxazol-3-yl}ethanol] was run?
A: 328 nM

Q: With `COC(C)(C)c1cc([C@@H]2CC[C@@H](C)N(C(=O)c3ccccc3-n3nccn3)C2)on1` [Example 57, (2R,5R)-5-[3-(1-Methoxy-1-methylethyl)isoxazol-5-yl]-2-methyl-1-{[2-(2H-1,2,3-triazol-2-yl)phenyl]carbonyl}piperidine] as the compound, how does the IC50 read?
A: 14.4 nM

Q: For `C[C@@H]1CC[C@@H](c2cc(C(C)(C)O)sn2)CN1C(=O)c1cscc1-c1ncccn1` [Example 65, 2-(3-{(3R,6R)-6-Methyl-1-[(4-pyrimidin-2-ylthiophen-3-yl)carbonyl]piperidin-3-yl}isothiazol-5-yl)propan-2-ol], which IC50 is on record?
A: 46.8 nM

Q: `C[C@@H]1CC[C@@H](c2cc([C@@H](O)C(F)(F)F)no2)CN1C(=O)c1ccsc1-c1ncccn1` [Example 49, (1R)-2,2,2-Trifluoro-1-(5-{(3R,6R)-6-methyl-1-[(2-pyrimidin-2-ylthiophen-3-yl)carbonyl]piperidin-3-yl}isoxazol-3-yl)ethanol] was tested. Which IC50 did it give?
A: 112 nM

Q: `C[C@@H]1CC[C@@H](c2cc(C(C)(O)C3CC3)on2)CN1C(=O)c1ccccc1-n1nccn1` (single isomer, unassigned) [Example 10] was tested. Which IC50 did it give?
A: 15.6 nM

Q: For `C[C@@H]1CC[C@@H](c2cc(C(C)(C)O)sn2)CN1C(=O)c1ccccc1-n1ncnn1` [Example 60, 2-{3-[(3R,6R)-6-Methyl-1-{[2-(2H-tetrazol-2-yl)phenyl]carbonyl}piperidin-3-yl]isothiazol-5-yl}propan-2-ol], which IC50 is on record?
A: 63.8 nM

Q: Which IC50 does the source give for `CCOc1ccccc1C(=O)N1C[C@H](c2cc(C(C)(C)O)no2)CC[C@H]1C` [Example 31, 2-(5-{(3R,6R)-1-[(2-Ethoxyphenyl)carbonyl]-6-methylpiperidin-3-yl}isoxazol-3-yl)propan-2-ol] here?
A: 178 nM

Q: How did the IC50 turn out when `C[C@@H]1CC[C@@H](c2cc(C(C)(C)O)on2)CN1C(=O)c1cc(Cl)ccc1-n1nccn1` [Example 3, (5-Chloro-2-(2H-1,2,3-triazol-2-yl)phenyl)((2R,5R)-5-(5-(2-hydroxypropan-2-yl)isoxazol-3-yl)-2-methylpiperidin-1-yl)methanone] was run?
A: 1430 nM

Q: With `C[C@@H]1CC[C@@H](c2cc(C(C)(C)O)sn2)CN1C(=O)c1ccccc1-c1ncccn1` [Example 63, 2-(3-{(3R,6R)-6-Methyl-1-[(2-pyrimidin-2-ylphenyl)carbonyl]piperidin-3-yl}isothiazol-5-yl)propan-2-ol] as the compound, how does the IC50 read?
A: 42.3 nM

Q: Which IC50 does the source give for `C[C@@H]1CC[C@@H](c2cc([C@@H](O)C(F)(F)F)no2)CN1C(=O)c1ccsc1-n1nccn1` [Example 42, (1R)-2,2,2-Trifluoro-1-{5-[(3R,6R)-6-methyl-1-{[2-(2H-1,2,3-triazol-2-yl)thiophen-3-yl]carbonyl}piperidin-3-yl]isoxazol-3-yl}ethanol] here?
A: 154 nM

Q: How did the IC50 turn out when `C[C@@H]1CC[C@@H](c2cc(C(C)(O)C3CC3)no2)CN1C(=O)c1ccccc1-n1nccn1` (single isomer, unassigned) [Example 53] was run?
A: 34.3 nM

Q: Which IC50 does the source give for `COCCc1ccccc1C(=O)N1C[C@H](c2cc(C(C)(C)O)sn2)CC[C@H]1C` [Example 70, 2-{3-[(3R,6R)-1-{[2-(2-methoxyethyl)phenyl]carbonyl}-6-methylpiperidin-3-yl]isothiazol-5-yl}propan-2-ol] here?
A: 935 nM

Q: `CCOc1ncccc1C(=O)N1C[C@H](c2cc(C(C)(C)O)no2)CC[C@H]1C` [Example 23, 2-(5-{(3R,6R)-1-[(2-Ethoxypyridin-3-yl)carbonyl]-6-methylpiperidin-3-yl}isoxazol-3-yl)propan-2-ol] was tested. Which IC50 did it give?
A: 268 nM

Q: With `C[C@@H]1CC[C@@H](c2cc(C(C)(C)O)no2)CN1C(=O)c1ccccc1-c1ncccn1` [Example 22, 2-(5-{(3R,6R)-6-Methyl-1-[(2-pyrimidin-2-ylphenyl)carbonyl]piperidin-3-yl}isoxazol-3-yl)propan-2-ol] as the compound, how does the IC50 read?
A: 51.4 nM

Q: For `C[C@@H]1CC[C@@H](c2cc(C(C)(O)C3CC3)on2)CN1C(=O)c1ccccc1-n1nccn1` (single isomer, unassigned) [Example 9], which IC50 is on record?
A: 25.8 nM

Q: For `C[C@@H]1CC[C@@H](c2cc(C(C)(C)O)on2)CN1C(=O)c1ccccc1C1(C#N)CC1` [Example 2, 1-(2-((2R,5R)-5-(5-(2-Hydroxypropan-2-yl)isoxazol-3-yl)-2-methylpiperidine-1-carbonyl)phenyl)cyclopropanecarbonitrile], which IC50 is on record?
A: 104 nM

Q: `CCC(C)(O)c1cc([C@@H]2CC[C@@H](C)N(C(=O)c3ccccc3-n3nccn3)C2)on1` (stereo partly drawn) [Example 55, 2-{5-[(3R,6R)-6-Methyl-1-{[2-(2H-1,2,3-triazol-2-yl)phenyl]carbonyl}piperidin-3-yl]isoxazol-3-yl}butan-2-ol] was tested. Which IC50 did it give?
A: 39.8 nM

Q: With `C[C@@H]1CC[C@@H](c2cc(C(C)(C)O)sn2)CN1C(=O)c1ccsc1-c1ncccn1` [Example 64, 2-(3-{(3R,6R)-6-Methyl-1-[(2-pyrimidin-2-ylthiophen-3-yl)carbonyl]piperidin-3-yl}isothiazol-5-yl)propan-2-ol] as the compound, how does the IC50 read?
A: 36.8 nM

Q: For `C[C@@H]1CC[C@@H](c2cc(C(C)(C)O)no2)CN1C(=O)c1cc(F)ccc1-n1nccn1` [Example 24, 2-{5-[(3R,6R)-1-{[5-Fluoro-2-(2H-1,2,3-triazol-2-yl)phenyl]carbonyl}-6-methylpiperidin-3-yl]isoxazol-3-yl}propan-2-ol], which IC50 is on record?
A: 215 nM

Q: Which IC50 does the source give for `C[C@@H]1CC[C@@H](c2cc(C(C)(C)O)on2)CN1C(=O)c1ccccc1-n1nccn1` [Example 1, 2-{3-[(3R,6R)-6-Methyl-1-{[2-(2H-1,2,3-triazol-2-yl)phenyl]carbonyl}piperidin-3-yl]isoxazol-5-yl}propan-2-ol] here?
A: 46.9 nM

Q: How did the IC50 turn out when `CC[C@@H]1CC[C@@H](c2cc(C(C)(C)O)no2)CN1C(=O)c1ccccc1-n1nccn1` [Example 39, 2-{5-[(3R,6R)-6-Ethyl-1-{[2-(2H-1,2,3-triazol-2-yl)phenyl]carbonyl}piperidin-3-yl]isoxazol-3-yl}propan-2-ol] was run?
A: 42.4 nM

Q: For `C[C@@H]1CC[C@@H](c2cc(C(C)(C)O)no2)CN1C(=O)c1ccccc1-c1ccccc1` [Example 26, 2-{5-[(3R,6R)-1-(Biphenyl-2-ylcarbonyl)-6-methylpiperidin-3-yl]isoxazol-3-yl}propan-2-ol], which IC50 is on record?
A: 22.9 nM

Reference: US10017504B2, “Piperidine isoxazole and isothiazole orexin receptor antagonists” (MERCK SHARP & DOHME CORP., priority 2014, dated 2018)
